Experiments:
Assay type in all cases: in vivo
[1] = test system: red spider Panonychus ulmi (PANOUL); assay: Example A: apple tree field test against red spider, count of adult spider mites on 25 leaves; details: etoxazole 0.05%, I-1-b 0.04%; for PANOUL (number of adult spider mites on 25 leaves): apple 'Braeburn'; for Prey/Predator ratio: PANOUL/AMBLAN
Protocol: (§1) In 4 replications, in each case five about 10-year-old apple trees (crown height about 2.5 m) of the cultivar “Braeburn” are treated against the red spider Panonychus ulmi (PANOUL). Here, the active compound (I-b-1) (240SC) and the commercial standard etoxazole (110 SC) are applied at the stated application rates in the presence of the predatory mite Amblyseius andersoni (AMBLAN) using a pressure-operated knapsack spray. The water application rate is 400 l/ha. Two applications are carried out at an interval of 42 days.
(§2) Evaluation is carried out 4 days prior to and 6, 29, 43 and 63 days after the 1st treatment by counting the number of adult spider mites and predatory mites on 25 leaves and establishing a prey/predator ratio as a measure for the supporting action of the beneficial species.

[2] = test system: predatory mite Amblyseius andersoni (AMBLAN); assay: Example A: apple tree field test, count of predatory mites on 25 leaves; details: apple 'Braeburn', etoxazole 0.05%, I-1-b 0.04%
Protocol: as §1, §2

[3] = test system: fruit tree spider mite (Panonychus ulmi); assay: Example B: Panonychus ulmi test on plum cuttings, with or without added predatory mites; details: 20 ppm, active compound alone, spray
From the text: The expected activity for a given combination of two active compounds can be calculated (cf. Colby, S. R.; “Calculating Synergistic and Antagonistic Responses of Herbicide Combinations”, Weeds 15, pages 20-22, 1967) as follows:
If • X is the kill rate, expressed in % of the untreated control, when employing active compound A at an application rate of in ppm or g/ha, • Y is the kill rate, expressed in % of the untreated control, when employing active compound B at an application rate of n ppm or g/ha, • E is the kill rate, expressed in % of the untreated control, when employing active compounds A and B at application rates of m and n ppm or g/ha, • then
If the actual insecticidal kill rate is higher than the calculated one, the kill rates of the combination are superadditive, i.e. a synergistic effect is present. In this case, the kill rate that is actually observed has to be higher than the value, calculated using the formula above, for the expected kill rate (E).
To produce a suitable preparation of active compound, 1 part by weight of active compound is mixed with the stated amounts of solvent and emulsifier, and the concentrate is diluted with emulsifier-containing water to the desired concentration. […]
After the desired period of time, the kill of the pest in % is determined. […] The determined kill ratios are entered into Colby's formula.

[4] = 6 d after 1st treatment, AMBLAN present
[5] = 29 d after 1st treatment, AMBLAN present
[6] = 43 d after 1st treatment, two applications 42 days apart
[7] = 63 d after 1st treatment, two applications 42 days apart
[8] = −4 d (4 days prior to 1st treatment)
[9] = −4 d (4 days prior to 1st treatment), AMBLAN present

| Compound | PANOUL (number of adult spider mites on 25 leaves) [1, 4] | PANOUL (number of adult spider mites on 25 leaves) [1, 5] | PANOUL (number of adult spider mites on 25 leaves) [1, 6] | PANOUL (number of adult spider mites on 25 leaves) [1, 7] | Prey/Predator ratio ([1]; 6 d after 1st treatment) | Prey/Predator ratio ([1]; 29 d after 1st treatment) | Prey/Predator ratio ([1]; 43 d after 1st treatment) | Prey/Predator ratio ([1]; 63 d after 1st treatment) | Prey/Predator ratio [1, 8] | PANOUL (number of adult spider mites on 25 leaves) [1, 9] | AMBLAN (number of predatory mites on 25 leaves) ([2]; 6 d after 1st treatment) | AMBLAN (number of predatory mites on 25 leaves) ([2]; 29 d after 1st treatment) | AMBLAN (number of predatory mites on 25 leaves) [2, 6] | AMBLAN (number of predatory mites on 25 leaves) [2, 7] | AMBLAN (number of predatory mites on 25 leaves) [2, 8] | Kill in % after 7 d [3] [%] |
| --- | --- | --- | --- | --- | --- | --- | --- | --- | --- | --- | --- | --- | --- | --- | --- | --- |
| CCOc1cc(C(C)(C)C)ccc1C1COC(c2c(F)cccc2F)=N1 (stereo not shown) [etoxazole, reference compound] | 10 | 221 | 203 | 87 | 2.0 | 12.3 | 3.9 | 1.01 | 25 | 25 | 5 | 18 | 52 | 86 | 1 | – |
| CCC(C)(C)C(=O)OC1=C(c2ccc(Cl)cc2Cl)C(=O)OC12CCCCC2 [I-b-1, spirodiclofen] | 13 | 111 | 52 | 0 | 4.3 | 1.9 | 0.5 | 0.00 | 18 | 36 | 3 | 57 | 100 | 62 | 2 | 70 |

Reference: patent US20100056620A1, “ACTIVE COMPOUND COMBINATIONS WITH INSECTICIDAL AND ACARICIDAL PROPERTIES” (Bayer CropScience AG, priority 2006, published 2010)
